Assay results published in patent publication US12472247B2, “Immune adjuvant comprising hepatitis B virus-derived polypeptide” (priority 2020, dated 2025).
“Also recorded” adds a separate entry of the source.

What was measured:
dendritic cells = test: migration of Poly6-treated dendritic cells to lymph nodes after footpad injection; format: in vivo, mouse; details: for ability of activated dendritic cells to migrate to the lymph nodes: 0.1 μM of Poly6, 0.1 μg/ml of LPS, vs DCs without any treatment
Description: Dendritic cells activated by treatment with Poly6 peptides for 24 hours were fluorescently labeled (CFSE) and injected into C57BL/6 mice by footpad injection, and after 3 days, the inguinal lymph nodes of the mice were extracted to confirm numbers of labeled dendritic cells.

[1] = test system: dendritic cells differentiated from mouse bone marrow cells; test: maturation markers of dendritic cells by FACS; format: cell-based; details: Poly6 0.1, 0.5, 1 μM, 24 hours
Description: (§1) The femur and tibia of C57BL/6 mice were isolated, and bone marrow cells therein were isolated. The isolated bone marrow cells were cultured in IMDM medium (supplemented with IL-4 and GM-CSF) to induce differentiation of dendritic cells. After culturing for 6 days, dendritic cells having 80% or more of CD11c markers were used in the experiment (FIG. 3).
Dendritic cells differentiated from mouse bone marrow cells were treated with Poly6 peptides at each concentration of 0.1 μM, 0.5 μM, and 1 μM and cultured for 24 hours, and then expression of representative maturation markers CD80, CD86, and MHC I, and a migration marker CCR7 of dendritic cells were confirmed by fluorescence activated cell sorting (FACS).

[2] = test system: peripheral blood mononuclear cells (PBMC); test: IFN-γ-expressing T cells in PBMC treated with Poly6; format: cell-based; details: human PBMC, IL-2 three days, Poly6 at various concentrations
[3] = test system: dendritic cells differentiated from mouse bone marrow cells; test: inflammatory cytokines secreted by dendritic cells (ELISA); format: cell-based; details: Poly6 0.1, 0.5, 1 μM, 24 hours
Description: as §1
When dendritic cells were treated with Poly6 peptides at concentrations of 0.1 μM, 0.5 μM, and 1 μM for 24 hours, inflammatory cytokines TNF-α, IL-6, and IL-12p40 secreted by dendritic cells were confirmed by ELISA.

HBV = test: anti-HBV effect in HBV-carrier mouse models (hydrodynamic injection); format: in vivo, hepatitis B virus

| Substance | ability of activated dendritic cells to migrate to the lymph nodes (dendritic cells) | numbers of dendritic cells found in the lymph nodes (dendritic cells; DCs treated with 0.1 μM Poly6, footpad injection, 3 days, vs untreated DCs) | expression level of the maturation markers of dendritic cells (CD80, CD86, MHC I, CCR7) [1] | IFN-γ-expressing T cells [2] | amounts of TNF-α, IL-6, and IL-12p40 secreted by dendritic cells [3] | anti-HIV-1 effects (HIV-1) | anti-HBV effects (HBV) |
| --- | --- | --- | --- | --- | --- | --- | --- |
| GRLVFQ (poly6 peptide) | have an ability to migrate to the lymph nodes on their own | increased statistically significantly | increased as the concentration of treated Poly6 increased | significantly increased IFN-γ-expressing T cells compared to a group treated with PBS; also recorded: concentration-dependent trend was also observed | amounts of TNF-α, IL-6, and IL-12p40 secreted by dendritic cells increased | showed anti-HIV-1 effects | anti-HBV effects in HBV-carrier mouse models were also observed |
| lipopolysaccharide [LPS, reference compound] | have an ability to migrate to the lymph nodes on their own | – | – | – | – | – | – |
